Experimental data published in the Bradley open melting point set (2014).
“And” between values parts separate entries of the source, which are not always exact repeats. Equal entries are not always repeated.

Row | Compound | melting point
1 | CC(C)(C)C1=CC(=O)C(=O)C(C(C)(C)C)=C1 [3,5-Di-tert-butyl-1,2-benzoquinone] | 114 °C
2 | CCCCCCCCCCCCCCCCCCS [1-octadecanethiol] | 32 °C
3 | O=P(Oc1ccccc1)(Oc1ccccc1)Oc1ccccc1 [Triphenyl phosphate] | 50.5 °C
4 | Cn1c(=O)c2[nH]cnc2n(C)c1=O [Theophylline] | 270 °C
5 | Cc1ccc(S(=O)(=O)NC2CCCCC2)cc1 [N-cyclohexyl-p-toluenesulfonamide] | 88 °C
6 | C[SiH](C)O[Si](O[SiH](C)C)(O[SiH](C)C)O[SiH](C)C [tetrakis(dimethylsiloxy)silane] | -60 °C
7 | Nc1ncnc2c1ncn2[C@@H]1O[C@H](CO)[C@@H](O)[C@H]1O [adenosine] | 234 °C
8 | Nc1ncnc2c1ncn2[C@@H]1O[C@H](CO)[C@@H](O)[C@H]1O [Adenosine] [listing 1 of 2 here] | 236 °C
9 | c1cc2ccc3cccc4ccc(c1)c2c34 [Pyrene] | 150 °C
10 | Cc1ccc(Cl)c(O)c1 [2-chloro-5-methylphenol] | 47 °C
11 | C=CCCC [1-pentene] | -162 °C
12 | CCOC(=O)CC [ethyl_propionate] | -73 °C
13 | COC(=O)CCC(C)C1CCC2C3CCC4CC(=O)CCC4(C)C3CC(=O)C12C (centres undefined) [methyl 3,12-dioxocholan-24-oate] | 130 °C
14 | Nc1ncnc2c1ncn2[C@@H]1O[C@H](CO)[C@@H](O)[C@H]1O [Adenosine] [listing 2 of 2 here] | 234 °C
15 | CCCCCCCCCCCCCCCC [Hexadecane] | 18 °C
16 | BrCBr [Dibromomethane] | -52 °C

Row | Compound | melting point
17 | O=S(=O)(O)CCCNC(CO)(CO)CO | 230 °C
18 | C[C@@H]1CCCC[C@@H]1O (relative stereo) [cis-2-methylcyclohexanol] | 8 °C
19 | N#CCC#N [malononitrile] | 34 °C
20 | C[C@H](CCC(=O)O)[C@H]1CC[C@H]2[C@@H]3[C@@H](O)C[C@@H]4C[C@H](O)CC[C@]4(C)[C@H]3CC[C@]12C [ursodeoxycholic acid] | 203 °C
21 | Nc1nc2ccc([N+](=O)[O-])cc2s1 [2-amino-6-nitrobenzothiazole] | 248 °C
22 | CC(C)(c1ccccc1)c1ccc(O)cc1 [4-cumylphenol] | 72 °C
23 | ClC1=C(Cl)C2(Cl)C3C(Cl)C=CC3C1(Cl)C2(Cl)Cl (centres undefined) [Heptachlor] | 95 °C
24 | CN(CCCC(=O)c1cccnc1)N=O [4-[Methyl(nitroso)amino]-1-(pyridin-3-yl)butan-1-one] | 72 °C
25 | CC(Br)Br [1,1-dibromoethane] | -63 °C
26 | COc1cc(OC)c(OC)cc1C=O [2,4,5-trimethoxybenzaldehyde] | 114 °C
27 | Cc1ccc(S)c(S)c1 [4-Methylbenzene-1,2-dithiol] | 31 °C
28 | CCCCCCC [Heptane] | -91 °C
29 | Cc1ccc(C(C)C)cc2c(C)ccc1-2 [guaiazulene] | 32 °C
30 | OCCN1CCOCC1 [4-(2-hydroxyethyl)morpholine] | 2 °C
31 | NC(CC(=O)O)C(=O)O (centres undefined) [aspartic acid] | 275 °C
32 | Nc1c([N+](=O)[O-])cccc1[N+](=O)[O-] [2,6-dinitroaniline] | 133 °C

Continued, values first:

Row | melting point | Compound
33 | 12 °C | CC(=O)c1cc(Cl)ccc1Cl [2',5'-dichloroacetophenone]
34 | 159 °C and 160 °C | COc1ccc2c(c1)c(CC(=O)O)c(C)n2C(=O)c1ccc(Cl)cc1 [indomethacin]
35 | 150 °C | Nc1ccc(C(=O)O)c(O)c1 [p-aminosalicylic acid]
36 | 192 °C | NC(=O)c1ccc(Br)cc1 [4-bromobenzamide]
37 | 152 °C | O=C(CCCN1CCC(O)(c2ccc(Cl)cc2)CC1)c1ccc(F)cc1 [Haloperidol]
38 | 146 °C | OB(O)c1cccnc1OCc1ccccc1 [2-benzyloxypyridine-3-boronic acid]
39 | 200 °C and 205 °C | O=C(O)c1cc(O)ccc1O [2,5-dihydroxybenzoic acid]
40 | 82 °C | COc1cc(C=O)ccc1O [4-Hydroxy-3-methoxybenzaldehyde]
41 | 255 °C | Nc1ccc(S(=O)(=O)Nc2ncccn2)cc1 [sulfadiazine]
42 | 82 °C | O=C(c1ccccc1)c1ccc(Br)cc1 [p-bromobenzophenone]
43 | 88 °C | COC(=O)C(C#N)c1ccccc1[N+](=O)[O-] (centres undefined) [methyl cyano(2-nitrophenyl)acetate]
44 | 190 °C | O=C(O)c1ccc(Br)o1 [5-bromo-2-furoic acid]
45 | 147 °C | CN1C(=O)c2ccccc2C1C=C(c1ccccc1)c1ccccc1 (centres undefined) [3-(2,2-Diphenylethenyl)-2-methylisoindolin-1-one]
46 | 183 °C | Clc1nc2ccccc2[nH]1 [2-chlorobenzimidazole]
47 | 221 °C | COC(=O)c1ccc(C(=O)O)cc1 [mono-methyl_terephthalate]
48 | 119 °C | OB(O)c1ccccc1OC(F)(F)F [2-(trifluoromethoxy)benzeneboronic acid]
49 | 59 °C | COc1ccccc1OC(=O)c1ccccc1 [2-methoxyphenyl benzoate]
